# Measurements reported in patent publication US10167284B2, “Spirocyclic compounds as agonists of the muscarinic M1 receptor and/or M4 receptor” (HEPTARES THERAPEUTICS LIMITED, priority 2015, dated 2019).
# Molecular target: T1, human muscarinic M4 receptor (Homo sapiens, UniProt P08173)
# T1 construct: expressed in transfected cells
# T1 sequence (P08173 1-479): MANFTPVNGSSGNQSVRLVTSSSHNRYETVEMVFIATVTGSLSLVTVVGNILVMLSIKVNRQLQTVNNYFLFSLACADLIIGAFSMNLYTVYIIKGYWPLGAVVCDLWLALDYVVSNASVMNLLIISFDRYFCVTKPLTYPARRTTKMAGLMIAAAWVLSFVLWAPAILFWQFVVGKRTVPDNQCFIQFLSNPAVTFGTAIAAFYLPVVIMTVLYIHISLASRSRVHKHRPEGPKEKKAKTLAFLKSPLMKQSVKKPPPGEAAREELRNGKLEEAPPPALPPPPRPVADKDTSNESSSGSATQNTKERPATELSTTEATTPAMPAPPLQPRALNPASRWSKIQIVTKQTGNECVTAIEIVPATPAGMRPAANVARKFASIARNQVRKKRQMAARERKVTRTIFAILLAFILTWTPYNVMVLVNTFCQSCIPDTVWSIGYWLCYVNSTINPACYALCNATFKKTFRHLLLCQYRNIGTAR
# Experiment: Alphascreen Surefire phospho-ERK1/2 functional assay, M4
# Format: cell-based
# Settings: CHO cells stably expressing human M4; Emax relative to ACh
# Method: (§1) CHO cells stably expressing the human muscarinic M1, M2, M3 or M4 receptor were plated (25K/well) onto 96-well tissue culture plates in MEM-alpha+10% dialysed FBS. Once adhered, cells were serum-starved overnight. Agonist stimulation was performed by the addition of 5 μL agonist to the cells for 5 min (37° C.). Media was removed and 50 μL of lysis buffer added. After 15 min, a 4 μL sample was transferred to 384-well plate and 7 μL of detection mixture added. Plates were incubated for 2 h with gentle agitation in the dark and then read on a PHERAstar plate reader.
# (§2) pEC50 and Emax figures were calculated from the resulting data for each receptor subtype.
row,Compound,M4 % Emax cf. ACh
1,"CCOC(=O)N1CCC2(CC(N3CCC4(CC3)OC(=O)N3CCCC34)C2)C1 (single isomer, unassigned) [4-44 Isomer 3]",(43) %
2,"CCOC(=O)N1CCC2(CC(N3CCC4(CC3)OC(=O)N(CC)C4CC)C2)C1 (single isomer, unassigned) [4-22 Isomer 3]",(80) %
3,"CCOC(=O)N1CCC2(CC(N3CCC4(CC3)CC(=O)NN4Cc3ccccc3)C2)C1 (single isomer, unassigned) [6-6 Isomer 2]",26) %
4,"CCOC(=O)N1CCC2(CC(N3CCC4(CC3)OC(=O)N3CCCC34)C2)C1 (single isomer, unassigned) [4-44 Isomer 4]",(97) %
5,"CCOC(=O)N1CCC2(CC(N3CCC4(CC3)OC(=O)NC4CC)C2)C1 (single isomer, unassigned) [4-12 Isomer 1]",(63) %
6,"CCOC(=O)N1CCC2(CC(N3CCC4(CC3)OC(=O)N(C)C4CC)C2)C1 (single isomer, unassigned) [4-20 Isomer 2]",(9) %
7,"CCOC(=O)N1CCC2(CC(N3CCC4(CC3)CNC(=O)O4)C2)C1 (single isomer, unassigned) [4-3 Isomer 1]",(37) %

# Same assay, conditions: CHO cells stably expressing human M4; phospho-ERK1/2; read-out: pEC50 M4 (converted)
row,Compound,EC50 [nM]
1,CCOC(=O)N1CC2(CCC(N3CCC4(CC3)OC(=O)N(CC)C4CC)C2)C1 (mixture of isomers) [8-2 mixture of diastereomers],10
2,"CCOC(=O)N1CCC2(CC(N3CCC4(CC3)OC(=O)N3CCCC34)C2)C1 (single isomer, unassigned) [4-44 Isomer 3]",50.1
3,"CCOC(=O)N1CCC2(CC(N3CCC4(CC3)OC(=O)N(CC)C4CC)C2)C1 (single isomer, unassigned) [4-22 Isomer 3]",31.6
4,"CCOC(=O)N1CCC2(CC(N3CCC4(CC3)CC(=O)NN4Cc3ccccc3)C2)C1 (single isomer, unassigned) [6-6 Isomer 2]",316
5,"CCOC(=O)N1CCC2(CC(N3CCC4(CC3)OC(=O)N3CCCC34)C2)C1 (single isomer, unassigned) [4-44 Isomer 4]",79.4
6,"CCOC(=O)N1CCC2(CC(N3CCC4(CC3)OC(=O)NC4CC)C2)C1 (single isomer, unassigned) [4-12 Isomer 1]",79.4
7,"CCOC(=O)N1CCC2(CC(N3CCC4(CC3)OC(=O)N(C)C4CC)C2)C1 (single isomer, unassigned) [4-20 Isomer 2]",> 20000
8,"CCOC(=O)N1CCC2(CC(N3CCC4(CC3)CNC(=O)O4)C2)C1 (single isomer, unassigned) [4-3 Isomer 1]",316

# Same assay, conditions: CHO, read-out: M4 % Emax cf. ACh, CHO cells stably expressing human M4; Emax relative to ACh
row,Compound,Emax [%]
1,CCOC(=O)N1CC2(CCC(N3CCC4(CC3)OC(=O)N(CC)C4CC)C2)C1 (mixture of isomers) [8-2 mixture of diastereomers],30

# Molecular target: human muscarinic M3 receptor (Homo sapiens, UniProt P20309)
# Sequence (P20309 whole entry): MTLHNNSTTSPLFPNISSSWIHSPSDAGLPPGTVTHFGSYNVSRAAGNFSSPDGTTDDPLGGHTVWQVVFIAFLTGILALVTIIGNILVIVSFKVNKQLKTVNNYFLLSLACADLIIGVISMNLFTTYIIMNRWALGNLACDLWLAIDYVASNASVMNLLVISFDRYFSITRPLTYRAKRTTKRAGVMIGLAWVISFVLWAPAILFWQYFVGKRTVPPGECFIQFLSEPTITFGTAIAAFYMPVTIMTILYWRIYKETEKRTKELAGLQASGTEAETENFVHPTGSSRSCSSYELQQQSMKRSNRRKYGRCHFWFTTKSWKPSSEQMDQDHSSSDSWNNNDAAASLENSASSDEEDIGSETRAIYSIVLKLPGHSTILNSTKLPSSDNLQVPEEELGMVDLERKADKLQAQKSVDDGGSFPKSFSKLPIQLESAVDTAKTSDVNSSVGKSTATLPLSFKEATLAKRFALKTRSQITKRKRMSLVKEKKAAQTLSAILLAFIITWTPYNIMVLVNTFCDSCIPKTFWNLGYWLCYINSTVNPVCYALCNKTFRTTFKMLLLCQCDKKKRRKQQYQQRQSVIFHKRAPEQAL
# Experiment: Alphascreen Surefire phospho-ERK1/2 functional assay, M3
# Settings: not given
row,Compound,EC50 [nM]
1,CCOC(=O)N1CC2(CCC(N3CCC4(CC3)OC(=O)N(CC)C4CC)C2)C1 (mixture of isomers) [8-2 mixture of diastereomers],> 20000
2,"CCOC(=O)N1CCC2(CC(N3CCC4(CC3)OC(=O)N3CCCC34)C2)C1 (single isomer, unassigned) [4-44 Isomer 3]",> 20000
3,"CCOC(=O)N1CCC2(CC(N3CCC4(CC3)OC(=O)N(CC)C4CC)C2)C1 (single isomer, unassigned) [4-22 Isomer 3]",> 20000
4,"CCOC(=O)N1CCC2(CC(N3CCC4(CC3)CC(=O)NN4Cc3ccccc3)C2)C1 (single isomer, unassigned) [6-6 Isomer 2]",> 20000
5,"CCOC(=O)N1CCC2(CC(N3CCC4(CC3)OC(=O)NC4CC)C2)C1 (single isomer, unassigned) [4-12 Isomer 1]",> 20000

# Same assay, conditions: CHO cells stably expressing human M3; Emax relative to ACh
row,Compound,M3 % Emax cf. ACh
1,"CCOC(=O)N1CCC2(CC(N3CCC4(CC3)OC(=O)N3CCCC34)C2)C1 (single isomer, unassigned) [4-44 Isomer 3]",(3) %
2,"CCOC(=O)N1CCC2(CC(N3CCC4(CC3)OC(=O)N3CCCC34)C2)C1 (single isomer, unassigned) [4-44 Isomer 4]",(10) %

# Same assay, conditions: CHO cells stably expressing human M3; phospho-ERK1/2
row,Compound,pEC50 M3
1,"CCOC(=O)N1CCC2(CC(N3CCC4(CC3)OC(=O)N3CCCC34)C2)C1 (single isomer, unassigned) [4-44 Isomer 4]",<4.7

# Same assay, conditions: CHO, read-out: M3 % Emax cf. ACh, CHO cells stably expressing human M3; Emax relative to ACh
row,Compound,Emax [%]
1,CCOC(=O)N1CC2(CCC(N3CCC4(CC3)OC(=O)N(CC)C4CC)C2)C1 (mixture of isomers) [8-2 mixture of diastereomers],1
2,"CCOC(=O)N1CCC2(CC(N3CCC4(CC3)OC(=O)N(CC)C4CC)C2)C1 (single isomer, unassigned) [4-22 Isomer 3]",1
3,"CCOC(=O)N1CCC2(CC(N3CCC4(CC3)CC(=O)NN4Cc3ccccc3)C2)C1 (single isomer, unassigned) [6-6 Isomer 2]",4
4,"CCOC(=O)N1CCC2(CC(N3CCC4(CC3)OC(=O)NC4CC)C2)C1 (single isomer, unassigned) [4-12 Isomer 1]",4

# Molecular target: T2, human muscarinic M1 receptor (Homo sapiens, UniProt P11229)
# T2 construct: expressed in transfected cells
# T2 sequence (P11229 1-460): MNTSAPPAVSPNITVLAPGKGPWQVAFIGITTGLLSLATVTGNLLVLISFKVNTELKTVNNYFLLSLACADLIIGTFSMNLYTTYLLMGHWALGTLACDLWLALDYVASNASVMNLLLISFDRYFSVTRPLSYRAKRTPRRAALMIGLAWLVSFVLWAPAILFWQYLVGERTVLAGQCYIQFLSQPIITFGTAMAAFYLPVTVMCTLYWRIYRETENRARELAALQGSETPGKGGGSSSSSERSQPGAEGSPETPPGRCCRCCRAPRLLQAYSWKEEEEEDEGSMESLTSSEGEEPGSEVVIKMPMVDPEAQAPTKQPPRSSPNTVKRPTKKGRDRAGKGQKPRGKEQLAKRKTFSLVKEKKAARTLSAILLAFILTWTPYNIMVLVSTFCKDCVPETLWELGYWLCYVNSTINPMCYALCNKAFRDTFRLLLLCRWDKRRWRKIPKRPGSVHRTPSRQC
# Experiment: Alphascreen Surefire phospho-ERK1/2 functional assay, M1
# Format: cell-based
# Settings: CHO cells stably expressing human M1; Emax relative to ACh
row,Compound,M1 % Emax cf. ACh
1,"CCOC(=O)N1CCC2(CC(N3CCC4(CC3)OC(=O)N3CCCC34)C2)C1 (single isomer, unassigned) [4-44 Isomer 3]",(40) %
2,"CCOC(=O)N1CCC2(CC(N3CCC4(CC3)OC(=O)N(CC)C4CC)C2)C1 (single isomer, unassigned) [4-22 Isomer 3]",(95) %
3,"CCOC(=O)N1CCC2(CC(N3CCC4(CC3)CC(=O)NN4Cc3ccccc3)C2)C1 (single isomer, unassigned) [6-6 Isomer 2]",(71) %
4,"CCOC(=O)N1CCC2(CC(N3CCC4(CC3)OC(=O)N3CCCC34)C2)C1 (single isomer, unassigned) [4-44 Isomer 4]",(67) %
5,"CCOC(=O)N1CCC2(CC(N3CCC4(CC3)OC(=O)NC4CC)C2)C1 (single isomer, unassigned) [4-12 Isomer 1]",(17) %
6,"CCOC(=O)N1CCC2(CC(N3CCC4(CC3)OC(=O)N(C)C4CC)C2)C1 (single isomer, unassigned) [4-20 Isomer 2]",(16) %
7,"CCOC(=O)N1CCC2(CC(N3CCC4(CC3)CNC(=O)O4)C2)C1 (single isomer, unassigned) [4-3 Isomer 1]",(91) %

# Same assay, conditions: CHO cells stably expressing human M1; phospho-ERK1/2; read-out: pEC50 M1 (converted)
row,Compound,EC50 [nM]
1,CCOC(=O)N1CC2(CCC(N3CCC4(CC3)OC(=O)N(CC)C4CC)C2)C1 (mixture of isomers) [8-2 mixture of diastereomers],200
2,"CCOC(=O)N1CCC2(CC(N3CCC4(CC3)OC(=O)N3CCCC34)C2)C1 (single isomer, unassigned) [4-44 Isomer 3]",200
3,"CCOC(=O)N1CCC2(CC(N3CCC4(CC3)OC(=O)N(CC)C4CC)C2)C1 (single isomer, unassigned) [4-22 Isomer 3]",200
4,"CCOC(=O)N1CCC2(CC(N3CCC4(CC3)CC(=O)NN4Cc3ccccc3)C2)C1 (single isomer, unassigned) [6-6 Isomer 2]",158
5,"CCOC(=O)N1CCC2(CC(N3CCC4(CC3)OC(=O)N3CCCC34)C2)C1 (single isomer, unassigned) [4-44 Isomer 4]",1260
6,"CCOC(=O)N1CCC2(CC(N3CCC4(CC3)OC(=O)NC4CC)C2)C1 (single isomer, unassigned) [4-12 Isomer 1]",> 20000
7,"CCOC(=O)N1CCC2(CC(N3CCC4(CC3)OC(=O)N(C)C4CC)C2)C1 (single isomer, unassigned) [4-20 Isomer 2]",> 20000
8,"CCOC(=O)N1CCC2(CC(N3CCC4(CC3)CNC(=O)O4)C2)C1 (single isomer, unassigned) [4-3 Isomer 1]",251

# Same assay, conditions: CHO, read-out: M1 % Emax cf. ACh, CHO cells stably expressing human M1; Emax relative to ACh
row,Compound,Emax [%]
1,CCOC(=O)N1CC2(CCC(N3CCC4(CC3)OC(=O)N(CC)C4CC)C2)C1 (mixture of isomers) [8-2 mixture of diastereomers],65

# Molecular target: T3, human muscarinic M2 receptor (Homo sapiens, UniProt P08172)
# T3 sequence (P08172 1-466): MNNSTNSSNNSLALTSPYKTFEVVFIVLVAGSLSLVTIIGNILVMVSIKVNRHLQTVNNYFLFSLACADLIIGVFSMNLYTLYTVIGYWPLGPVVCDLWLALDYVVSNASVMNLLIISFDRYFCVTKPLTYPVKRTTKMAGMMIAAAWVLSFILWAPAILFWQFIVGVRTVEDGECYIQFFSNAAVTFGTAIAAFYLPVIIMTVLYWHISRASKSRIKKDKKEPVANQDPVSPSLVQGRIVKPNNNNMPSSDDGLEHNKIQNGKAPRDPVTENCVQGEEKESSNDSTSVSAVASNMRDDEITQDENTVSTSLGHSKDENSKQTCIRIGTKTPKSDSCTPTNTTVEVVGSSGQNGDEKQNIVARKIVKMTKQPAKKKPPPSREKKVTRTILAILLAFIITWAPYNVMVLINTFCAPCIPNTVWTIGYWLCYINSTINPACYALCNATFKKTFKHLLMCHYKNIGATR
# Experiment: Alphascreen Surefire phospho-ERK1/2 functional assay, M2
# Settings: CHO cells stably expressing human M2; Emax relative to ACh
# Method: as §1, §2
row,Compound,M2 % Emax cf. ACh
1,"CCOC(=O)N1CCC2(CC(N3CCC4(CC3)OC(=O)N(CC)C4CC)C2)C1 (single isomer, unassigned) [4-22 Isomer 3]",(3) %
2,"CCOC(=O)N1CCC2(CC(N3CCC4(CC3)OC(=O)N3CCCC34)C2)C1 (single isomer, unassigned) [4-44 Isomer 4]",(14) %
3,"CCOC(=O)N1CCC2(CC(N3CCC4(CC3)OC(=O)NC4CC)C2)C1 (single isomer, unassigned) [4-12 Isomer 1]",(50) %

# Same assay, conditions: CHO cells stably expressing human M2; phospho-ERK1/2
row,Compound,pEC50 M2
1,"CCOC(=O)N1CCC2(CC(N3CCC4(CC3)OC(=O)N3CCCC34)C2)C1 (single isomer, unassigned) [4-44 Isomer 4]",<4.7

# Same assay, conditions: CHO, read-out: M2 % Emax cf. ACh, CHO cells stably expressing human M2; Emax relative to ACh
row,Compound,Emax [%]
1,CCOC(=O)N1CC2(CCC(N3CCC4(CC3)OC(=O)N(CC)C4CC)C2)C1 (mixture of isomers) [8-2 mixture of diastereomers],1
2,"CCOC(=O)N1CCC2(CC(N3CCC4(CC3)OC(=O)N3CCCC34)C2)C1 (single isomer, unassigned) [4-44 Isomer 3]",7
3,"CCOC(=O)N1CCC2(CC(N3CCC4(CC3)CC(=O)NN4Cc3ccccc3)C2)C1 (single isomer, unassigned) [6-6 Isomer 2]",3

# Same assay, conditions: pEC50 M2, CHO cells stably expressing human M2; phospho-ERK1/2
row,Compound,EC50 [nM]
1,CCOC(=O)N1CC2(CCC(N3CCC4(CC3)OC(=O)N(CC)C4CC)C2)C1 (mixture of isomers) [8-2 mixture of diastereomers],> 20000
2,"CCOC(=O)N1CCC2(CC(N3CCC4(CC3)OC(=O)N3CCCC34)C2)C1 (single isomer, unassigned) [4-44 Isomer 3]",> 20000
3,"CCOC(=O)N1CCC2(CC(N3CCC4(CC3)OC(=O)N(CC)C4CC)C2)C1 (single isomer, unassigned) [4-22 Isomer 3]",> 20000
4,"CCOC(=O)N1CCC2(CC(N3CCC4(CC3)CC(=O)NN4Cc3ccccc3)C2)C1 (single isomer, unassigned) [6-6 Isomer 2]",> 20000
5,"CCOC(=O)N1CCC2(CC(N3CCC4(CC3)OC(=O)NC4CC)C2)C1 (single isomer, unassigned) [4-12 Isomer 1]",> 20000
